SMILES strings stand for the structures.

One test deals with T1, F508del (Homo sapiens, UniProt P13569, DEL508-508).
T1 construct: expressed in transfected cells
T1 sequence (P13569 with tags, fused parts or gaps DEL508-508): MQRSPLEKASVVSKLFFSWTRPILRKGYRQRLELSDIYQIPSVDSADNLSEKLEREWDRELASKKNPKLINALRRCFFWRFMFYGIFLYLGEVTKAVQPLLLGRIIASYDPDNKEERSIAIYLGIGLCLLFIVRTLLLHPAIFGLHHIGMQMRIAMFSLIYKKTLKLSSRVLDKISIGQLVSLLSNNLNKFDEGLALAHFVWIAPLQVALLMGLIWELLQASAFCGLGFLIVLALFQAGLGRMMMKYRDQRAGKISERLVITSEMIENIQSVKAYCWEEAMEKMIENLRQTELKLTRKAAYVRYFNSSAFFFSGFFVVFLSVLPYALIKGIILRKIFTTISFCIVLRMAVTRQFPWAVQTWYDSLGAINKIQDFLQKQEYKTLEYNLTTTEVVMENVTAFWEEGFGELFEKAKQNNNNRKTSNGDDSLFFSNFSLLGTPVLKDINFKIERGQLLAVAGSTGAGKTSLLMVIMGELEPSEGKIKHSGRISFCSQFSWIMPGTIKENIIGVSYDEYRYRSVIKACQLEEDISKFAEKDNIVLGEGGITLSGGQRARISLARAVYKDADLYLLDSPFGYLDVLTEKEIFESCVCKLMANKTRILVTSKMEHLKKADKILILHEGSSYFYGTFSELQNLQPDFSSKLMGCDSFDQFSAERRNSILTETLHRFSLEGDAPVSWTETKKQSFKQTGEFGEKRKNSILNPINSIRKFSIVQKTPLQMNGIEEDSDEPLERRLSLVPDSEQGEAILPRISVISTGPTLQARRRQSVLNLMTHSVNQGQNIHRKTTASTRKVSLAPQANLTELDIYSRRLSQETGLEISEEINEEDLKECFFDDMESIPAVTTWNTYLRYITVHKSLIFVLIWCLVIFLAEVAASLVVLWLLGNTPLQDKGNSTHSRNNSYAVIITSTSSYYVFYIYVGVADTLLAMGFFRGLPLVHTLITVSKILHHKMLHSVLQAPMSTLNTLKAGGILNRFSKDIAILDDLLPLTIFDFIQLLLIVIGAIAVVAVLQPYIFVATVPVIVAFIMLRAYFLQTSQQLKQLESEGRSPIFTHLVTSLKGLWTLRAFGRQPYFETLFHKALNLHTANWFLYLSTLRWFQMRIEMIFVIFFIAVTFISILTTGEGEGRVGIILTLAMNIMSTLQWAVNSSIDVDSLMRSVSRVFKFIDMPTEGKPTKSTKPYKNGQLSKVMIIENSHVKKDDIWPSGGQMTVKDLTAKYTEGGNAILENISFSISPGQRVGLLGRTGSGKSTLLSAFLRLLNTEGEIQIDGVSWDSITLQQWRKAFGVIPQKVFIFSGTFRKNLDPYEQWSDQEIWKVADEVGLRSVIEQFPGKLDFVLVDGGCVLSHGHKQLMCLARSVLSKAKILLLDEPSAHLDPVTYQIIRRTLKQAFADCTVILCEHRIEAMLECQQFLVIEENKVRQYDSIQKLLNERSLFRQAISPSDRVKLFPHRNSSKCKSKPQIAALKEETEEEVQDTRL
Kind of test: Protocol 2: FRET membrane potential optical assay (VIPR), identification of correction compounds. Format: cell-based. The following applies: F508del CFTR modulator activity; compounds of Table 1; read-out: EC30. In outline: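 Single-addition HTS format: F508del-expressing NIH3T3 cells pre-incubated 16 hrs at 37° C. ± compound, with 27° C. culture as positive control. Channel activation by forskolin 10 μM and genistein 20 μM upon switch to gluconate bath, pH 7.4; read-out is FRET-based depolarization signal.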
On to `COc1ccc(C)cc1-c1ccc(C(=O)NS(=O)(=O)c2ccc[nH]c2=O)c(N2C[C@@H](C)CC2(C)C)n1` [Compound 2530, 6-(2-methoxy-5-methyl-phenyl)-N-[(2-oxo-1H-pyridin-3-yl)sulfonyl]-2-[(4S)-2,2,4-trimethylpyrrolidin-1-yl]pyridine-3-carboxamide], for which the EC30 is less than 3000 nM.

For the compound `CC1CN(c2ncc(/C=C/c3ccc(C(F)(F)F)cc3)cc2C(=O)NS(=O)(=O)c2cccc(N)n2)C(C)(C)C1` (centres unmarked) [Compound 2014, N-[(6-amino-2-pyridyl)sulfonyl]-5-[(E)-2-[4-(trifluoromethyl)phenyl]vinyl]-2-(2,2,4-trimethylpyrrolidin-1-yl)pyridine-3-carboxamide], the EC30 is less than 3000 nM.

With `Cc1ccc(F)cc1-c1ccc(C(=O)NS(=O)(=O)c2cccnc2N)c(N2C[C@@H](C)CC2(C)C)n1` [Compound 2660, N-[(2-amino-3-pyridyl)sulfonyl]-6-(5-fluoro-2-methyl-phenyl)-2-[(4S)-2,2,4-trimethylpyrrolidin-1-yl]pyridine-3-carboxamide], the EC30 was less than 3000 nM.

As to `CC(C)COc1cc(F)cc(-c2ccc(C(=O)NS(=O)(=O)c3cccc(N)n3)c(N3CCC[C@H]3C(=O)OC(C)(C)C)n2)c1` [Compound 2204, tert-butyl (2S)-1-[3-[(6-amino-2-pyridyl)sulfonylcarbamoyl]-6-(3-fluoro-5-isobutoxy-phenyl)-2-pyridyl]pyrrolidine-2-carboxylate], the EC30 is less than 3000 nM.

As to `CC1CN(c2ncc(-c3ccccc3OC(C)C)cc2C(=O)NS(=O)(=O)c2cccc(N)n2)C(C)(C)C1` (centres unmarked) [Compound 2283, N-[(6-amino-2-pyridyl)sulfonyl]-5-(2-isopropoxyphenyl)-2-(2,2,4-trimethylpyrrolidin-1-yl)pyridine-3-carboxamide], the EC30 was less than 3000 nM.

For the compound `Cc1cccc(Nc2cccc(S(=O)(=O)NC(=O)c3cccnc3N3CC(C)CC3(C)C)n2)c1` (centres unmarked) [Compound 2572, N—[[6-(3-methylanilino)-2-pyridyl]sulfonyl]-2-(2,2,4-trimethylpyrrolidin-1-yl)pyridine-3-carboxamide], the EC30 is less than 3000 nM.

As for `CCOc1ccc(F)cc1-c1ccc(C(=O)NS(=O)(=O)c2ccc[nH]c2=O)c(N2C[C@@H](C)CC2(C)C)n1` [Compound 2051, 6-(2-ethoxy-5-fluoro-phenyl)-N-[(2-oxo-1H-pyridin-3-yl)sulfonyl]-2-[(4S)-2,2,4-trimethylpyrrolidin-1-yl]pyridine-3-carboxamide], the EC30 is less than 3000 nM.

Consider `CC[C@@H](C)Oc1ccn(-c2ccc(C(=O)NS(=O)(=O)c3cccnc3N)c(N3C[C@@H](C)CC3(C)C)n2)n1` [Compound 2704], for which the EC30 is less than 3000 nM.

As for `CCOC(=O)c1cccc(Nc2cccc(S(=O)(=O)NC(=O)c3cccnc3N3CC(C)CC3(C)C)n2)c1` (centres unmarked) [Compound 2060, ethyl 3-[[6-[[2-(2,2,4-trimethylpyrrolidin-1-yl)pyridine-3-carbonyl]sulfamoyl]-2-pyridyl]amino]benzoate], the EC30 is less than 3000 nM.

Turning to `CC(C)COc1cc(F)cc(-c2ccc(C(=O)NS(=O)(=O)c3cccc(N)n3)c(N3CC(F)(F)CC3(C)C)n2)c1` [Compound 2631, N-[(6-amino-2-pyridyl)sulfonyl]-2-(4,4-difluoro-2,2-dimethyl-pyrrolidin-1-yl)-6-(3-fluoro-5-isobutoxy-phenyl)pyridine-3-carboxamide], the EC30 is less than 3000 nM.

Consider `CCOc1ccc(-c2ccc(C(=O)NS(=O)(=O)c3cccnc3N)c(N3C[C@@H](C)CC3(C)C)n2)cc1F` [Compound 2403, N-[(2-amino-3-pyridyl)sulfonyl]-6-(4-ethoxy-3-fluoro-phenyl)-2-[(4S)-2,2,4-trimethylpyrrolidin-1-yl]pyridine-3-carboxamide], for which the EC30 was less than 3000 nM.

Take `Cc1ccc(F)cc1-c1ccc(C(=O)NS(=O)(=O)N2CC[C@H](N)C2)c(N2C[C@@H](C)CC2(C)C)n1` [Compound 2490, N-[(3S)-3-aminopyrrolidin-1-yl]sulfonyl-6-(5-fluoro-2-methyl-phenyl)-2-[(4S)-2,2,4-trimethylpyrrolidin-1-yl]pyridine-3-carboxamide]: the EC30 was less than 3000 nM.

In the case of `Cc1cc(-c2ccc(C(=O)NS(=O)(=O)c3ccc[nH]c3=O)c(N3C[C@@H](C)CC3(C)C)n2)ccc1F` [Compound 2456, 6-(4-fluoro-3-methyl-phenyl)-N-[(2-oxo-1H-pyridin-3-yl)sulfonyl]-2-[(4S)-2,2,4-trimethylpyrrolidin-1-yl]pyridine-3-carboxamide], the EC30 is less than 3000 nM.

Consider `CC1CN(c2ncccc2C(=O)NS(=O)(=O)c2cccc(Nc3ccc(C(F)(F)F)cc3)n2)C(C)(C)C1` (centres unmarked) [Compound 2292, N—[[6-[4-(trifluoromethyl)anilino]-2-pyridyl]sulfonyl]-2-(2,2,4-trimethylpyrrolidin-1-yl)pyridine-3-carboxamide], for which the EC30 was less than 3000 nM.

Regarding `CC1CN(c2ncc(-c3ccc(C(C)(C)O)cc3)cc2C(=O)NS(=O)(=O)c2cccc(N)n2)C(C)(C)C1` (centres unmarked) [Compound 2547, N-[(6-amino-2-pyridyl)sulfonyl]-5-[4-(1-hydroxy-1-methyl-ethyl)phenyl]-2-(2,2,4-trimethylpyrrolidin-1-yl)pyridine-3-carboxamide], the EC30 is less than 3000 nM.

On to `Cc1ccc(O)c(-c2ccc(C(=O)NS(=O)(=O)c3ccc[nH]c3=O)c(N3C[C@@H](C)CC3(C)C)n2)c1` [Compound 2174, 6-(2-hydroxy-5-methyl-phenyl)-N-[(2-oxo-1H-pyridin-3-yl)sulfonyl]-2-[(4S)-2,2,4-trimethylpyrrolidin-1-yl]pyridine-3-carboxamide], for which the EC30 lay within 3000 to 10000 nM.

`C[C@@H]1CN(c2nc(-c3ccc(F)cc3)ccc2C(=O)NS(=O)(=O)c2cccnc2N)C(C)(C)C1` [Compound 2435, N-[(2-amino-3-pyridyl)sulfonyl]-6-(4-fluorophenyl)-2-[(4S)-2,2,4-trimethylpyrrolidin-1-yl]pyridine-3-carboxamide]: the EC30 was less than 3000 nM.

Regarding `CC1CN(c2ncccc2C(=O)NS(=O)(=O)c2cccc(N3CCN(Cc4ccccn4)CC3)n2)C(C)(C)C1` (centres unmarked) [Compound 2504, N—[[6-[4-(2-pyridylmethyl)piperazin-1-yl]-2-pyridyl]sulfonyl]-2-(2,2,4-trimethylpyrrolidin-1-yl)pyridine-3-carboxamide], the EC30 lay in the range of 3000 to 10000 nM.

Still in this test, the particulars now being: Table 3; compounds of Table 1 as modulators of CFTR activity; protocol not stated.
On to `Cc1ccc(-c2nc3c(cc2C(=O)NS(=O)(=O)c2nccnc2N)CCCC3(C)C)cc1` [Compound 707, N-(3-aminopyrazin-2-yl)sulfonyl-8,8-dimethyl-2-(p-tolyl)-6,7-dihydro-5H-quinoline-3-carboxamide], for which the EC30 entry is given as “+ (“+” means greater than 10 uM)”.

As to `Cc1cc(C)c(Oc2nc(-c3ccc4c(c3)OCCO4)ccc2C(=O)NS(=O)(=O)c2cccc(N)n2)c(C)c1` [Compound 673, N-[(6-amino-2-pyridyl)sulfonyl]-6-(2,3-dihydro-1,4-benzodioxin-6-yl)-2-(2,4,6-trimethylphenoxy)pyridine-3-carboxamide], the EC30 result is recorded as “+++ (“+++” means <3 uM)”.

Regarding `Cc1cc(C)c(Cn2cc(C(C)(C)C)cc2C(=O)NS(=O)(=O)c2ccccc2)c(C)c1` [Compound 242, N-(benzenesulfonyl)-4-tert-butyl-1-[(2,4,6-trimethylphenyl)methyl]pyrrole-2-carboxamide], the EC30 entry was “+++ (“+++” means <3 uM)”.

With `C[C@@H]1CC[C@H](C)N1c1nc(-c2cncc(OC3CCCC3)c2)ccc1C(=O)NS(=O)(=O)c1cccc(N)n1` [Compound 495, N-[(6-amino-2-pyridyl)sulfonyl]-6-[5-(cyclopentoxy)-3-pyridyl]-2-[(2S,5R)-2,5-dimethylpyrrolidin-1-yl]pyridine-3-carboxamide], the EC30 result is “++ (“++” means between 3 uM and 10 uM)”.

For `CC(C)COc1cc(F)cc(-c2ccc(C(=O)NS(=O)(=O)c3cccc(N)n3)c(N3CCCC3C(C)(C)C)n2)c1` (centres unmarked) [Compound 613, N-[(6-amino-2-pyridyl)sulfonyl]-2-(2-tert-butylpyrrolidin-1-yl)-6-(3-fluoro-5-isobutoxy-phenyl)pyridine-3-carboxamide], the EC30 result is “+++ (“+++” means <3 uM)”.

`Cc1cc(C)c(Oc2nc(-c3ccccc3)ccc2C(=O)NS(=O)(=O)c2cccc(N)n2)c(C)c1` [Compound 203, N-[(6-amino-2-pyridyl)sulfonyl]-6-phenyl-2-(2,4,6-trimethylphenoxy)pyridine-3-carboxamide]: the EC30 entry is on record as “+++ (“+++” means <3 uM)”.

Turning to `CC(C)COc1cc(F)cc(-c2ccc(C(=O)NS(=O)(=O)c3cccc(N)n3)c(OC3CCC(C)C3C)n2)c1` (centres unmarked) [Compound 503, N-[(6-amino-2-pyridyl)sulfonyl]-2-(2,3-dimethylcyclopentoxy)-6-(3-fluoro-5-isobutoxy-phenyl)pyridine-3-carboxamide], the EC30 result is on record as “+++ (“+++” means <3 uM)”.

As for `Cc1c(Cn2nc(C(C)(C)C)cc2C(=O)NS(=O)(=O)c2ccccc2)cccc1C(F)(F)F` [Compound 98, N-(benzenesulfonyl)-5-tert-butyl-2-[[2-methyl-3-(trifluoromethyl)phenyl]methyl]pyrazole-3-carboxamide], the EC30 entry is recorded as “+++ (“+++” means <3 uM)”.

For `Cc1ccc(Oc2nc(-c3ccccc3)ccc2C(=O)NS(=O)(=O)c2cccc(N)n2)c(C)c1` [Compound 340, N-[(6-amino-2-pyridyl)sulfonyl]-2-(2,4-dimethylphenoxy)-6-phenyl-pyridine-3-carboxamide], the 30% effect concentration (EC30) entry is given as “+++ (“+++” means <3 uM)”.

In the case of `Cc1cc(C)c(CN2Cc3ccccc3C2C(=O)NS(=O)(=O)c2ccc(N)cc2)c(C)c1` (centres unmarked) [Compound 121, N-(4-aminophenyl)sulfonyl-2-[(2,4,6-trimethylphenyl)methyl]isoindoline-1-carboxamide], the EC30 entry is “++ (“++” means between 3 uM and 10 uM)”.

With `Cc1cc(C)c(Cn2c(C(=O)NS(=O)(=O)c3cccc(N)c3)cc3c(Cl)cccc32)c(C)c1` [Compound 362, N-(3-aminophenyl)sulfonyl-4-chloro-1-[(2,4,6-trimethylphenyl)methyl]indole-2-carboxamide], the EC30 result is recorded as “+++ (“+++” means <3 uM)”.
